Results on 13 compounds are retold here after patent publication US9938322B2, “β-hairpin peptidomimetics” (priority 2013, dated 2018).

Each structure is given as a SMILES string. Where a SMILES comes first, the peptide text is derived from it. [ ]: non-standard residue; d: D form. Phe(4-F) = N[C@@H](Cc1ccc(F)cc1)C(=O)O; Pro(3S-OH) = O=C(O)[C@H]1NCC[C@@H]1O; Cha = N[C@@H](CC1CCCCC1)C(=O)O; Chg = N[C@H](C(=O)O)C1CCCCC1; Tle = CC(C)(C)[C@H](N)C(=O)O; dDab = NCC[C@@H](N)C(=O)O; Orn = NCCC[C@H](N)C(=O)O; Dab = NCC[C@H](N)C(=O)O; Nva = CCC[C@H](N)C(=O)O; Abu = CC[C@H](N)C(=O)O; Dap = NC[C@H](N)C(=O)O

The subject of this data set is human red blood cells (hRBC). Put plainly: Hemolysis of human red blood cells. It is filed as cell-based. As to conditions: red cells of human, 1 h, 100. Put shortly: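 Washed fresh human erythrocytes (20% v/v, about 0.9×10^9 cells/ml final) incubated with peptide at 100 μg/ml for 1 h at 37° C with shaking. Supernatant OD540 read; hemolysis expressed relative to 2.5% Triton X-100 (100%) and PBS with 0.001% acetic acid (0%).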
For the compound `C[C@@H]1NC(=O)[C@H](CC2CCCCC2)NC(=O)[C@H](CCN)NC(=O)[C@H](Cc2c[nH]c3ccccc23)NC(=O)[C@H](CCN)NC(=O)[C@@H](CCN)NC(=O)[C@H](CCCN)NC(=O)[C@H](CCN)NC(=O)[C@H](C(C)(C)C)NC(=O)[C@H](CO)NC(=O)[C@H](Cc2ccc(O)cc2)NC(=O)[C@@H]2CCCN2C(=O)[C@H]2CCCN2C(=O)[C@H](CO)NC1=O` [compound 66] (cyclo(YS[Tle][Dab][Orn][dDab][Dab]W[Dab][Cha]AS[dP]P)), the “Hemolysis at 100 μg/ml” value is recorded as 4%.
Turning to `CC(C)C[C@@H]1NC(=O)[C@@H]2CCCN2C(=O)[C@H]2CCCN2C(=O)[C@H](CO)NC(=O)[C@H](C)NC(=O)[C@H](C(C)(C)C)NC(=O)[C@H](CCN)NC(=O)[C@H](Cc2c[nH]c3ccccc23)NC(=O)[C@H](CCN)NC(=O)[C@@H](CCN)NC(=O)[C@H](CCCN)NC(=O)[C@H](CCN)NC(=O)[C@H](Cc2c[nH]c3ccccc23)NC(=O)[C@H](CO)NC1=O` [compound 33] (cyclo(LSW[Dab][Orn][dDab][Dab]W[Dab][Tle]AS[dP]P)), the “Hemolysis at 100 μg/ml” value was found to be 3.5%.
Take `CCC[C@@H]1NC(=O)[C@@H]2CCCN2C(=O)[C@H]2CCCN2C(=O)[C@H](CO)NC(=O)[C@H](C)NC(=O)[C@H](C(C)(C)C)NC(=O)[C@H](CCN)NC(=O)[C@H](Cc2c[nH]c3ccccc23)NC(=O)[C@H](CCN)NC(=O)[C@@H](CCN)NC(=O)[C@H](CCCN)NC(=O)[C@H](CCN)NC(=O)[C@H](Cc2ccc(F)cc2)NC(=O)[C@H](CO)NC1=O` [Ex. 104] (cyclo([Nva]S[Phe(4-F)][Dab][Orn][dDab][Dab]W[Dab][Tle]AS[dP]P)): the “Hemolysis at 100 μg/ml” value is reported as 0.5%.
On to `CC(C)C[C@@H]1NC(=O)[C@@H]2CCCN2C(=O)[C@H]2CCCN2C(=O)[C@H](CO)NC(=O)[C@H](C)NC(=O)[C@H](C(C)(C)C)NC(=O)[C@H](CCN)NC(=O)[C@H](Cc2c[nH]c3ccccc23)NC(=O)[C@H](CCN)NC(=O)[C@@H](CCN)NC(=O)[C@H](CN)NC(=O)[C@H](CCN)NC(=O)[C@H](Cc2ccc(O)cc2)NC(=O)[C@H](CO)NC1=O` [compound 95] (cyclo(LSY[Dab][Dap][dDab][Dab]W[Dab][Tle]AS[dP]P)), for which the “Hemolysis at 100 μg/ml” value was 1%.
As to `CCC[C@@H]1NC(=O)[C@@H]2CCCN2C(=O)[C@H]2CCCN2C(=O)[C@H](CO)NC(=O)[C@H](C)NC(=O)[C@H](C(C)(C)C)NC(=O)[C@H](CCN)NC(=O)[C@H](Cc2c[nH]c3ccccc23)NC(=O)[C@H](CCN)NC(=O)[C@@H](CCN)NC(=O)[C@H](CCCN)NC(=O)[C@H](CCN)NC(=O)[C@H](Cc2c[nH]c3ccccc23)NC(=O)[C@H](CO)NC1=O` [compound 80] (cyclo([Nva]SW[Dab][Orn][dDab][Dab]W[Dab][Tle]AS[dP]P)), the “Hemolysis at 100 μg/ml” value is listed as 1%.
Turning to `CC[C@@H]1NC(=O)[C@H]([C@@H](C)CC)NC(=O)[C@@H]2CCCN2C(=O)[C@H]2CCCN2C(=O)[C@H](CO)NC(=O)[C@H](C)NC(=O)[C@H](C(C)(C)C)NC(=O)[C@H](CCN)NC(=O)[C@H](Cc2c[nH]c3ccccc23)NC(=O)[C@H](CCN)NC(=O)[C@@H](CCN)NC(=O)[C@H](CCCN)NC(=O)[C@H](CCN)NC(=O)[C@H](Cc2ccc(O)cc2)NC1=O` [compound 126] (cyclo(I[Abu]Y[Dab][Orn][dDab][Dab]W[Dab][Tle]AS[dP]P)), the “Hemolysis at 100 μg/ml” value is recorded as 0.5%.
Turning to `C[C@@H]1NC(=O)[C@H](Cc2c[nH]c3ccccc23)NC(=O)[C@@H]2CCCN2C(=O)[C@H]2CCCN2C(=O)[C@H](CO)NC(=O)[C@H](C)NC(=O)[C@H](C2CCCCC2)NC(=O)[C@H](CCN)NC(=O)[C@H](Cc2c[nH]c3ccccc23)NC(=O)[C@H](CCN)NC(=O)[C@@H](CCN)NC(=O)[C@H](CCCN)NC(=O)[C@H](CCN)NC(=O)[C@H](Cc2ccc(O)cc2)NC1=O` [compound 77] (cyclo(WAY[Dab][Orn][dDab][Dab]W[Dab][Chg]AS[dP]P)), the “Hemolysis at 100 μg/ml” value worked out at 1%.
As for `CC(C)C[C@@H]1NC(=O)[C@@H]2CCCN2C(=O)[C@H]2CCCN2C(=O)[C@H](CO)NC(=O)[C@H](C)NC(=O)[C@H](C(C)C)NC(=O)[C@H](CCN)NC(=O)[C@H](Cc2c[nH]c3ccccc23)NC(=O)[C@H](CCN)NC(=O)[C@@H](CCN)NC(=O)[C@H](CCCN)NC(=O)[C@H](CCN)NC(=O)[C@H](Cc2ccc(O)cc2)NC(=O)[C@H](CO)NC1=O` [compound 35] (cyclo(LSY[Dab][Orn][dDab][Dab]W[Dab]VAS[dP]P)), the figure is 1%; as for `CC(C)C[C@@H]1NC(=O)[C@@H]2CCCN2C(=O)[C@H]2CCCN2C(=O)[C@H](CO)NC(=O)[C@H](Cc2ccc(O)cc2)NC(=O)[C@H](C(C)(C)C)NC(=O)[C@H](CCN)NC(=O)[C@H](Cc2c[nH]c3ccccc23)NC(=O)[C@H](CCN)NC(=O)[C@@H](CCN)NC(=O)[C@H](CCCN)NC(=O)[C@H](CCN)NC(=O)[C@H](Cc2ccc(O)cc2)NC(=O)[C@H]([C@@H](C)O)NC1=O` [compound 113] (cyclo(LTY[Dab][Orn][dDab][Dab]W[Dab][Tle]YS[dP]P)), 0%.
For the compound `CC(C)C[C@@H]1NC(=O)[C@@H]2[C@@H](O)CCN2C(=O)[C@H]2CCCN2C(=O)[C@H](CO)NC(=O)[C@H](C)NC(=O)[C@H](C(C)(C)C)NC(=O)[C@H](CCN)NC(=O)[C@H](Cc2c[nH]c3ccccc23)NC(=O)[C@H](CCN)NC(=O)[C@@H](CCN)NC(=O)[C@H](CCCN)NC(=O)[C@H](CCN)NC(=O)[C@H](CC2CCCCC2)NC(=O)[C@H](CO)NC1=O` [compound 58] (cyclo(AS[dP][Pro(3S-OH)]LS[Cha][Dab][Orn][dDab][Dab]W[Dab][Tle])), the “Hemolysis at 100 μg/ml” value was 1%.
Under `CCC[C@@H]1NC(=O)[C@H](CCN)NC(=O)[C@H](Cc2c[nH]c3ccccc23)NC(=O)[C@H](CCN)NC(=O)[C@@H](CCN)NC(=O)[C@H](CCCN)NC(=O)[C@H](CCN)NC(=O)[C@H](C(C)(C)C)NC(=O)[C@H](CO)NC(=O)[C@H](Cc2c[nH]c3ccccc23)NC(=O)[C@@H]2CCCN2C(=O)[C@H]2CCCN2C(=O)[C@H](CO)NC(=O)[C@H](C)NC1=O` [compound 67] (cyclo(WS[Tle][Dab][Orn][dDab][Dab]W[Dab][Nva]AS[dP]P)) stands 1%; under `CCC[C@@H]1NC(=O)[C@@H]2CCCN2C(=O)[C@H]2CCCN2C(=O)[C@H](CO)NC(=O)[C@H](C)NC(=O)[C@H](CC2CCCCC2)NC(=O)[C@H](CCN)NC(=O)[C@H](Cc2c[nH]c3ccccc23)NC(=O)[C@H](CCN)NC(=O)[C@@H](CCN)NC(=O)[C@H](CCCN)NC(=O)[C@H](CCN)NC(=O)[C@H](C(C)(C)C)NC(=O)[C@H](CO)NC1=O` [compound 141] (cyclo([Nva]S[Tle][Dab][Orn][dDab][Dab]W[Dab][Cha]AS[dP]P)), 8%; under `CC(C)[C@@H]1NC(=O)[C@@H]2CCCN2C(=O)[C@H]2CCCN2C(=O)[C@H](CO)NC(=O)[C@H](C)NC(=O)[C@H](C(C)(C)C)NC(=O)[C@H](CCN)NC(=O)[C@H](Cc2c[nH]c3ccccc23)NC(=O)[C@H](CCN)NC(=O)[C@@H](CCN)NC(=O)[C@H](CCCN)NC(=O)[C@H](CCN)NC(=O)[C@H](Cc2ccc(O)cc2)NC(=O)[C@H](C)NC1=O` [compound 46] (cyclo(VAY[Dab][Orn][dDab][Dab]W[Dab][Tle]AS[dP]P)), 1%.
